Test results as given in US20260027083A1, “USE OF PPAR AGONIST FOR IMPROVEMENT OF ENERGY METABOLISM” (NOVMETAPHARMA CO., LTD., priority 2022, published 2026).

Key:
high-fat diet mice [1] = test: Intraperitoneal glucose tolerance test (IP-GTT) in high-fat diet mice; type: in vivo, C57BL/6J mice; settings: 5 mg/kg/day oral, 60% HFD, glucose 2 g/kg i.p. after 16 h fasting, FIG. 10
Description: (§1) The care and use of experimental animals were carried out with the approval of the Institutional Animal Care and Use Committee of Pohang University of Science and Technology. C57BL/6J mice were purchased from Japan SLC, Inc. 50 four-week-old male C57/BL/6J mice were acclimated for 2 weeks. The mice were randomly divided and orally administered with vehicle or 5 mg/kg/day of D6 or WY14643 for 13 weeks (oral gavage), and obesity was induced by a 60% high-fat diet (#D12492, Research diets, NJ, USA). Body weights and food intakes were measured weekly from 6 weeks of age, and after 16 weeks of age, adipose tissue and muscle volumes were measured using a Trimodality imaging system.
A glucose tolerance test (GTT) was performed on mice after 16 weeks of age after fasting for 16 hours and intraperitoneal glucose administration at 2 g/kg body weight. The blood glucose levels were measured at 0, 15, 30, 45, 60, 90, and 120 minutes after tail vein injection.
(§2) To confirm a metabolic disease inhibitory effect of the compound represented by Chemical Formula 1 through animal experiments, mice were acclimated for 2 weeks, and then obesity was induced by feeding a 60% high fat diet (HFD) and orally administered with vehicle or 5 mg/kg/day of the compound represented by Chemical Formula 1 (D6) or WY14643 for 13 weeks. […]

high-fat diet mice [2] = test: High-fat diet mice: micro-CT adipose tissue volume; type: in vivo, C57BL/6J mice; settings: 5 mg/kg/day oral, 60% HFD, vs control group, FIGS. 7 and 8
Description: as §1
(§3) To confirm a metabolic disease inhibitory effect of the compound represented by Chemical Formula 1 through animal experiments, mice were acclimated for 2 weeks, and then obesity was induced by feeding a 60% high fat diet (HFD) and orally administered with vehicle or 5 mg/kg/day of the compound represented by Chemical Formula 1 (D6) or WY14643 for 13 weeks. Experiments such as IP-GTT, IP-ITT, and micro-CT were performed at the week 10 of drug administration (FIG. 5).

high-fat diet mice [3] = test: Intraperitoneal insulin tolerance test (IP-ITT) in high-fat diet mice; type: in vivo, C57BL/6J mice; settings: 5 mg/kg/day oral, 60% HFD, insulin 0.75 U/kg i.p. after 3 h fasting, FIG. 11
Description: as §1
An insulin tolerance test (ITT) was performed on mice after 17 weeks of age after fasting for 3 hours and intraperitoneal insulin administration at 0.75 U/kg body weight. The blood glucose levels were measured at 0, 15, 30, 45, 60 and 90 minutes after tail vein injection.
as §2

PPARβ/δ = target: T1, PPARβ/δ (Homo sapiens, UniProt Q03181); test: Gal4 trans-activated luciferase reporter assay, PPARβ/δ-LBD, HEK293; type: cell-based; settings: HEK293, drug treatment 24 hours, FIG. 1
T1 construct: three types of pcDNA5-GAL4 and pGALRE-luc containing PPARα-LBD, PPARβ/δ-LBD, or PPARγ-LBD; GAL4 (fusion partner from vector pcDNA5-GAL4); expressed in transfected cells; host or cells: HEK293
T1 sequence (Q03181 211-439 limits assumed): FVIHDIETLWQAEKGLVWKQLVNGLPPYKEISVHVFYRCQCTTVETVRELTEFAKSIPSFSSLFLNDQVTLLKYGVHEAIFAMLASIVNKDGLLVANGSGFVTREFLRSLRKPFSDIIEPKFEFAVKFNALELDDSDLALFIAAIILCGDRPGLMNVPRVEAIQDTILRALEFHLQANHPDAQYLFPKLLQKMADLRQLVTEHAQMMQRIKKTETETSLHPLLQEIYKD
Description: A plasmid was transformed into E. coli (DE3, Rosetta) and transfected into HEK293 cells and used. Referring to known literatures such as Kanno, Y. & Inouye, Y. J Toxicol Sci 35, 515-525 (2010), Zhao, S. et al. J Nat Prod 79, 879-885 (2016), etc., luciferase assay was performed on three types of pcDNA5-GAL4 and pGALRE-luc containing PPARα-LBD, PPARβ/δ-LBD, or PPARγ-LBD. pProEX-PPAR and pET-28a were used for purification of His-tagged recombinant hPPAR-LBD protein.
A HEK293 cell line was cultured in Dulbecco's Modified Eagle Medium (DMEM) containing 10% Fetal Bovine Serum (FBS) and 1% penicillin-streptomycin (P/S). […]
Transfected HEK293 cells were treated with a drug and after 24 hours, the cells were collected, resuspended in a luciferase lysis buffer (Promega, Madison, Wisconsin, USA), and incubated on ice for 10 minutes. […] Next, Firefly Luciferase (Fluc) and Renilla Luciferase (Rluc) activities were measured using the Dual Luciferase Reporter Assay System (Promega, Madison, Wisconsin, USA). […]
To confirm whether a compound represented by Chemical Formula 1 was a PPAR agonist, Gal4 trans-activated luciferase assay was performed. Specifically, HEK293 cells were transfected with the Gal4-luciferase reporter systems of PPARα, PPARβ/δ, and PPARγ, respectively, harvested after drug treatment for 24 hours, and then analyzed by Dual-Luciferase assay. […]

high-fat diet mice [4] = test: High-fat diet mice: organ weights; type: in vivo, C57BL/6J mice; settings: 5 mg/kg/day oral, 60% HFD, vs HFD-V, FIG. 9
Description: as §1, §3

relative luciferase activity (Fluc to Rluc) for PPARβ/δ (PPARβ/δ): dose-dependently increased
Compound: COc1ccc(-c2cc(=O)oc3c(C)c(OC(=O)[C@H](Cc4c[nH]c5ccccc45)NC(=O)OC(C)(C)C)ccc23)cc1 [Chemical Formula 1, [4-(4-methoxyphenyl)-8-methyl-2-oxochromen-7-yl] (2S)-3-(1H-indol-3-yl)-2-[(2-methylpropan-2-yl)oxycarbonylamino]propanoate]
glucose tolerance (IP-GTT) (high-fat diet mice [1]): improved
volume of adipose tissue (micro-CT) (high-fat diet mice [2]): significantly reduced
insulin resistance (IP-ITT) (high-fat diet mice [3]): improved
epididymal white adipose tissue (eWAT) weight (high-fat diet mice [4]): reduced
liver weight (high-fat diet mice [4]): reduced
